{
  "source": "patent US20080107740A1",
  "about": "“Pharmaceutical composition comprising salmeterol and budesonide for the treatment of respiratory disorders” (GALEPHAR M/F, priority 2001, published 2008)",
  "origin": "cited, not measured here",
  "key": {"[1]": {"system": "patients with reversible obstructive respiratory disease"}, "[2]": {"details": "inhaled, administered after or before inhaled corticosteroids"}},
  "data": [
    {"smiles": "OCc1cc(C(O)CNCCCCCCOCCCCc2ccccc2)ccc1O", "note": "(stereo not shown) [Salmeterol]", "values": [
      {"measurement": "onset of significant bronchodilation", "setting": "[1]; after inhalation", "result": "within minutes"},
      {"measurement": "time to maximal bronchodilation", "setting": "[1]; after inhalation", "result": "≤ 2", "unit": "h"},
      {"measurement": "duration of bronchodilation", "setting": "[1]; inhalation, patients with reversible obstructive respiratory disease", "result": "up to 12 hours"},
      {"measurement": "tolerability", "setting": "[2]", "result": "well tolerated"}
    ]}
  ]
}
